Source: ChEMBL document CHEMBL1201862, “PubChem BioAssay data set” (2004)
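Exposure lasted 48 hours, with cells grown in 96-well plates and compounds tested at five concentrations. GI50 marks 50% less growth.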 Activity calls are given as the source filed them. Cut-off read from the data, not from the text of the source: active = GI50 up to about 1.1 µM and inactive = higher.

Assays:
Test in all cases: NCI-60 cell line screen, 48 h
[1] = test system: M19-MEL
[2] = test system: LXFL 529
[3] = test system: HOP-18
[4] = test system: CAKI-1
[5] = test system: HCT-15
[6] = test system: DMS-273
[7] = test system: SK-OV-3
[8] = test system: SNB-19
[9] = test system: SK-MEL-2
[10] = test system: SK-MEL-28
[11] = test system: TK-10
[12] = test system: KM-20L2
[13] = test system: EKVX
[14] = test system: ACHN
[15] = test system: SR
[16] = test system: OVCAR-5
[17] = test system: HOP-92
[18] = test system: U-251
[19] = test system: 786-0
[20] = test system: UACC-257
[21] = test system: A549
[22] = test system: SNB-78
[23] = test system: SK-MEL-5
[24] = test system: HCC 2998
[25] = test system: IGROV-1
[26] = test system: SW-620
[27] = test system: OVCAR-8
[28] = test system: MOLT-4
[29] = test system: RXF 393
[30] = test system: SF-539
[31] = test system: UACC-62
[32] = test system: SN12C
[33] = test system: HCT-116
[34] = test system: NCI-H522
[35] = test system: NCI-H460
[36] = test system: SNB-75
[37] = test system: NCI-H226
[38] = test system: COLO 205
[39] = test system: K562
[40] = test system: UO-31
[41] = test system: HT-29
[42] = test system: KM12
[43] = test system: XF498
[44] = test system: DMS-114
[45] = test system: SF-295
[46] = test system: Malme-3M
[47] = test system: OVCAR-4
[48] = test system: RPMI-8226
[49] = test system: NCI-H23
[50] = test system: DLD-1

For `C(=N\CC/N=C/c1cccc2ccccc12)/c1cccc2ccccc12`, the GI50 [1] was > 100 µM (inactive), the GI50 [2] was > 100 µM (inactive) and the GI50 [3] was > 100 µM (inactive). The GI50 [4] was > 100 µM (inactive), the GI50 [5] was over 100 µM and the GI50 [6] was > 100 µM (inactive). For the same compound, the GI50 [7] was 22.1 µM (inactive), the GI50 [8] was > 100 µM (inactive) and the GI50 [9] was > 100 µM (inactive). The GI50 [10] was > 100 µM (inactive), the GI50 [11] was > 100 µM (inactive) and the GI50 [12] was > 100 µM (inactive). For the same compound, the GI50 [13] was > 100 µM (inactive), the GI50 [14] was > 100 µM (inactive) and the GI50 [15] was > 100 µM (inactive). For the same compound, the GI50 [16] was > 100 µM (inactive), the GI50 [17] was < 10 nM (active) and the GI50 [18] was > 100 µM (inactive). The GI50 [19] was > 100 µM (inactive), the GI50 [20] was > 100 µM (inactive) and the GI50 [21] was > 100 µM (inactive). For the same compound, the GI50 [22] was > 100 µM (inactive), the GI50 [23] was > 100 µM (inactive) and the GI50 [24] was > 100 µM (inactive). For the same compound, the GI50 [25] was > 100 µM (inactive), the GI50 [26] was > 100 µM (inactive) and the GI50 [27] was > 100 µM (inactive). For the same compound, the GI50 [28] was > 100 µM (inactive), the GI50 [29] was > 100 µM (inactive) and the GI50 [30] was > 100 µM (inactive). The GI50 [31] was > 100 µM (inactive), the GI50 [32] was > 100 µM (inactive) and the GI50 [33] was > 100 µM (inactive). For the same compound, the GI50 [34] was > 100 µM (inactive), the GI50 [35] was > 100 µM (inactive) and the GI50 [36] was 12.6 µM (inactive). For the same compound, the GI50 [37] was > 100 µM (inactive), the GI50 [38] was > 100 µM (inactive) and the GI50 [39] was > 100 µM (inactive). The GI50 [40] was > 100 µM (inactive), the GI50 [41] was > 100 µM (inactive) and the GI50 [42] was > 100 µM (inactive). The GI50 [43] was > 100 µM (inactive), the GI50 [44] was > 100 µM (inactive) and the GI50 [45] was > 100 µM (inactive). For the same compound, the GI50 [46] was > 100 µM (inactive), the GI50 [47] was > 100 µM (inactive) and the GI50 [48] was > 100 µM (inactive). For the same compound, the GI50 [49] was > 100 µM (inactive) and the GI50 [50] was > 100 µM (inactive).
